Read-outs that look alike come from different tables or passages of the source.
Columns and labels:
oily skin = settings: 1% solution on face twice a day, after a month
enlarged skin pores = settings: 0.1% gel on face twice a day, after a month
sebum production = settings: for reduction in sebum production (as assessed by the Sebotape): 2% memantine lotion twice daily on back skin, vs pre-treatment or control region; for health of the skin in treatment region: 2% memantine lotion twice daily
acne = settings: 0.5% cream on face twice a day, after three months

SMILES: OC(CCN1CCCCC1)(c1ccccc1)C1CC2C=CC1C2 (stereo not shown) [biperiden]
- appearance of skin oiliness (oily skin): much less oily
- visible unwanted side-effects regarding skin (oily skin): no other visible unwanted side-effects

SMILES: CNC1(C)C2CCC(C2)C1(C)C (stereo not shown) [mecamylamine]
- appearance of skin pores (enlarged skin pores): smaller in diameter
- visible unwanted side-effects regarding skin (enlarged skin pores): no other visible unwanted side-effects

SMILES: CC12CC3CC(C)(C1)CC(N)(C3)C2 [memantine]
- reduction in sebum production (as assessed by the Sebotape) (sebum production; after five days): > 50%
- reduction in sebum production (as assessed by the Sebotape) (sebum production; after six days): > 50%
- health of the skin in treatment region (sebum production; after five days): healthy skin
- health of the skin in treatment region (sebum production; after six days): healthy skin
- appearance of acne (acne): less visible
- visible unwanted side-effects regarding skin (acne): no other visible unwanted side-effects

Source: patent US9649266B2 (priority 2014, dated 2017)
